Laboratory results reported in patent US7208517B1, “Endothelin antagonists” (Abbott Labortories, priority 1994, dated 2007).

Assays:
[1] = biological target: T1, ETA Receptor (Rattus norvegicus, UniProt P26684); test: [125I]ET-1 binding to membranes from MMQ cells (ETA receptor binding assay, Table 4); details: test compound at 1 μM; 0.1 nM [125I]ET-1, MMQ cell membranes, 4 hours at 25° C.
T1 construct: endogenous in cells; host or cells: MMQ rat pituitary cells (membranes)
T1 sequence (P26684 21-426): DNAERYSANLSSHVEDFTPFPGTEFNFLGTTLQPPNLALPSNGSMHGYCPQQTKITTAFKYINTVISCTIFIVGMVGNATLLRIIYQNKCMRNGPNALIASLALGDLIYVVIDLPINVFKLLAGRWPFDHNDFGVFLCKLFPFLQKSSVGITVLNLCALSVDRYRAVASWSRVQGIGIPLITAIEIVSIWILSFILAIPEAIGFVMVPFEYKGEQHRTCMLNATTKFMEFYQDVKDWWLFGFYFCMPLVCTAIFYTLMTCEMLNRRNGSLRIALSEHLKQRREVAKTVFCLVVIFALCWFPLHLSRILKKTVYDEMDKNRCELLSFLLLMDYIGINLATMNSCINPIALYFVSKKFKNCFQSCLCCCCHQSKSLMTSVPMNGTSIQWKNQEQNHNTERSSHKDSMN

[2] = system: ET-1-induced phosphatidylinositol hydrolysis in MMQ cells; test: Determination of ET-1-induced phosphatidylinositol (PI) hydrolysis in MMQ cells; format: cell-based, rat; details: 1 nM ET-1 challenge, read-out: IC50 (inhibition of ET-induced increase in PI turnover)
Protocol: MMQ cells (0.4×10^6 cells/mL) were labeled with 10 μCi/mL of [^3H]myo-inositol in RPMI for 16 hours. The cells were washed with PBS, then incubated with Buffer A containing protease inhibitors and 10 mM LiCl for 60 minutes. The cells were then incubated with test compounds for 5 minutes, and then challenged with 1 nM ET-1. ET-1 challenge was terminated by the addition of 1.5 mL of 1:2 (v/v) chloroform-methanol. Total inositol phosphates were extracted after adding chloroform and water to give final proportions of 1:1:0.9 (v/v/v) chloroform-methanol-water as described by Berridge (Biochem. J. 206 587–595 (1982)). The upper aqueous phase (1 mL) was retained and a small portion (100 μL) was counted. The rest of the aqueous sample was analyzed by batch chromatography using anion-exchange resin AG1-X8 (Bio-Rad). […] The results of the above study clearly indicate that the compounds act as functional ET antagonists.

[3] = Determination of plasma protein binding (ultrafiltration, HPLC); format: in vitro ADME; details: fresh plasma, 1 hour at room temperature
Protocol: A stock solution of the test compound in 50% ethanol (2 mg/mL) was diluted 10× into PBS. A 0.4 mL sample of this secondary stock solution was added to 3.6 mL of fresh plasma, and incubated at room temperature for 1 hour. A 1 mL sample of this incubation mixture was transferred to a Centrifree ultrafiltration tube. The sample was centrifuged in a fixed-bucket rotor for approximately 2 min and the filtrate was discarded. The sample was centrifuged for another 15–30 min. A 100 μL sample of the ultrafiltrate was transfered to a micro HPLC sample vial containing […] of HPLC mobile phase and mixed thoroughly. A 50 μL sample was injected and the concentration of drug in the ultrafiltrate was determined by HPLC analysis compared against a standard sample prepared identically in the absence of plasma. Ultrafiltrate concentrations are calculated from a calibration curve. Protein binding is calculated according to the equation: % PB=[1−(Cu/Ci)]*100%
where Cu is the ultrafiltrate concentration and Ci is the initial plasma concentration.

[4] = pH-solubility profile: maximum solubility in aqueous media at varying pH; format: physicochemical
Source text: Such increased aqueous solubility, coupled with the enhanced potency resulting from decreased protein binding, might make such compounds preferred for development as parenteral agents.

[5] = biological target: T2, human ETA receptor (Homo sapiens, UniProt P25101); test: Albumin-induced binding shift study: [125I]ET-1 binding in presence of human serum albumin; details: 0%, 0.2%, 1% or 5% HSA
T2 construct: expressed in transfected cells; host or cells: CHO cells, permanently transfected
T2 sequence (P25101 21-427): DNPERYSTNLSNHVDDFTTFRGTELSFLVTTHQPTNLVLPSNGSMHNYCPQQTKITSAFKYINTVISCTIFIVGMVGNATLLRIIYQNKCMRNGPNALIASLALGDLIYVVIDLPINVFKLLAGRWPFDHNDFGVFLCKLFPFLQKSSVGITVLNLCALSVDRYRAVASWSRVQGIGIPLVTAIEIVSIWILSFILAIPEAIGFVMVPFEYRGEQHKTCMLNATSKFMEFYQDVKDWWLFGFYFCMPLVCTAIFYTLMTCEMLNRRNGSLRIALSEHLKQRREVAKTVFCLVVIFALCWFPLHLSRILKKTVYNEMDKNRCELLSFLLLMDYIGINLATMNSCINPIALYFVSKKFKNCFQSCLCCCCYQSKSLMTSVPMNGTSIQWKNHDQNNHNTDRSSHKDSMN
Protocol: Protocol for Albumin-induced binding shift studies: Binding assays were performed in 96-well microtiter plates precoated with 0.1% BSA unless otherwise indicated. Membranes were diluted in Buffer B (20 mM Tris, 100 mM NaCl, 10 mM MgCl2, pH 7.4, 0.1 mM PMSF, […] Pepstatin A, 0.025% bacitracin and 3 mM EDTA) to a final concentration of 0.05 mg/ml of protein. Varying concentrations of human serum albumin (HSA) were added as indicated. In competition studies, membranes were incubated with 0.1 nM of [^125I]ET in Buffer B (final volume: 0.2 ml) in the presence of increasing concentrations of unlabeled test ligands for 4 hours at 25° C. After incubation, unbound ligands were separated from bound ligands by vacuum filtration using glass-fiber filter strips in PHD cell harvesters (Cambridge Technology, Inc., Watertown, MA), followed by washing the filter strips with saline (1 ml) for three times. Nonspecific binding was determined in the presence of 1 μM ET-1. Inhibition of [^125]ET-1 binding to human ETA receptor by ETA antagonists. Each curve was determined in the presence of either 0%, 0.2%, 1%, or 5% HSA, and assays were performed as described above. The results are expressed as % of control binding, with [^125I]ET-1 binding in the absence of antagonist defining 100%. Each point represents the mean (±S.D.) of three determinations.

[6] = system: decrease in cerebral blood flow due to subarachnoid hemorrhage (SAH); details: rats; cited from earlier work
[7] = system: post-ischaemic renal vasoconstriction; details: rats; cited from earlier work
[8] = system: MAP; details: sodium-depleted squirrel monkeys; dosed orally; cited from earlier work

| % Inhibition of ETA at 1 μM [1] [%] | IC50 [2] [pM] | percent of bound compound (plasma protein binding, % PB) [3] [%] | percent of bound compound (plasma protein binding, % PB) ([3]; listed as Example #43) [%] | maximum solubility ([4]; pH 5.1, about 25° C.) [µg/mL] | maximum solubility ([4]; pH 6.5, about 25° C.) [µg/mL] | maximum solubility ([4]; pH 7.1, about 25° C.) [µg/mL] | maximum solubility ([4]; pH 7.6, about 25° C.) [µg/mL] | Compound | shift of the binding curve in the presence of increasing albumin levels [5] | decrease in cerebral blood flow due to subarachnoid hemorrhage (SAH) [6] | post-ischaemic renal vasoconstriction [7] | MAP [8] |
| --- | --- | --- | --- | --- | --- | --- | --- | --- | --- | --- | --- | --- |
| 99.2 | 100 | > 98 | >99.5 | 80 | 510 | 990 | 1140 | CCCCN(CCCC)C(=O)CN1C[C@H](c2ccc3c(c2)OCO3)[C@@H](C(=O)O)[C@@H]1c1ccc(OC)cc1 (relative stereo) [Example 43, trans,trans-2-(4-Methoxyphenyl)-4-(1,3-benzodioxol-5-yl)-1-(N,N-di(n-butyl)aminocarbonylmethyl)-pyrrolidine-3-carboxylic acid] | rightward shift of the binding curve (toward decreasing potency) |  |  |  |
|  |  |  |  |  |  |  |  | COc1cccc(Oc2c(NS(=O)(=O)c3ccc(C(C)(C)C)cc3)ncnc2OCCO)c1 [Ro 46–2005] |  | prevents the decrease in cerebral blood flow due to subarachnoid hemorrhage (SAH) | prevents post-ischaemic renal vasoconstriction | decreases MAP |
